According to US20210037829A1, “ANTIMICROBIAL COMPOSITIONS FOR SURGICAL APPLICATIONS” (TELEFLEX MEDICAL INCORPORATED, priority 2015, published 2021):
“And” between values parts separate entries of the source, which are not always exact repeats. Identical values can stand only once.

Columns and labels:
Assay in all cases: Time to Kill
Format in all cases: cell-based
Candida albicans = conditions: 128 ppm; for Exposure time to complete kill: C. albicans, challenge 10^4-10^5 CFU/mL; for Number of Microbial Colonies: Candida albicans, replicates 1-5
Protocol: (§1) Alexidine and Chlorhexidine, both at a concentration of 128 ppm were exposed to a Gram positive bacteria (Staphylococcus aureus), a Gram negative bacteria (Pseudomonas aeruginosa), and a fungus (Candida albicans). The challenge concentration for each organism was 10^4-10^5 CFU/mL, and the exposure time varied from 0.5-60 minutes. […] Complete kill of all three organisms was observed within 0.5-1 minute of Alexidine exposure.

Staphylococcus aureus = conditions: 128 ppm; for Exposure time to complete kill: S. aureus, challenge 10^4-10^5 CFU/mL; for Number of Microbial Colonies: Staphylococcus aureus, replicates 1-5
Protocol: as §1

Pseudomonas aeruginosa = conditions: 128 ppm; for Exposure time to complete kill: P. aeruginosa, challenge 10^4-10^5 CFU/mL; for Number of Microbial Colonies: Pseudomonas aeruginosa, replicates 1-5
Protocol: as §1

[1] = exposure 0.5 minutes, TNTC = too numerous to count
[2] = exposure 1 minute, TNTC = too numerous to count
[3] = exposure 5 minutes, TNTC = too numerous to count

Row | Compound | Exposure time to complete kill (Candida albicans) | Number of Microbial Colonies (Candida albicans; [1]) | Number of Microbial Colonies (Candida albicans; [2]) | Number of Microbial Colonies (Candida albicans; [3]) | Number of Microbial Colonies (Candida albicans; exposure 60 minutes) | Exposure time to complete kill (Staphylococcus aureus) | Number of Microbial Colonies (Staphylococcus aureus; [1]) | Number of Microbial Colonies (Staphylococcus aureus; [2]) | Number of Microbial Colonies (Staphylococcus aureus; [3]) | Number of Microbial Colonies (Staphylococcus aureus; exposure 60 minutes) | Exposure time to complete kill (Pseudomonas aeruginosa) | Number of Microbial Colonies (Pseudomonas aeruginosa; exposure 0.5 minutes) | Number of Microbial Colonies (Pseudomonas aeruginosa; exposure 1 minute) | Number of Microbial Colonies (Pseudomonas aeruginosa; exposure 5 minutes) | Number of Microbial Colonies (Pseudomonas aeruginosa; exposure 60 minutes)
1 | CCCCC(CC)CNC(=N)NC(=N)NCCCCCCNC(=N)NC(=N)NCC(CC)CCCC (stereo not drawn) [Alexidine] | 0.5 to 1 min | 3 and 0 (4×) | 0 (4×) and 1 | 0 | 0 | 0.5 to 1 min | 0 | 0 | 0 | 0 | 0.5 to 1 min | 0 | 0 | 0 | 0
2 | [H]/N=C(\N/C(=N/[H])NCCCCCCNC(=N)NC(=N)Nc1ccc(Cl)cc1)Nc1ccc(Cl)cc1 [Chlorhexidine] | 60 min | TNTC | TNTC | 30 and 20 and 32 and 24 and TNTC | 0 | 60 min | TNTC | TNTC | TNTC | 1 (2×) and 0 (3×) | 5 min | 7 and 4 and 5 and 2 and 1 | 1 | 0 | 0
